Data taken from patent US10093611B2, “Benzocycloalkenes as antifungal agents” (Bayer Intellectual Property GmbH, priority 2010, dated 2018).

How the values were obtained:
[1] = log P by HPLC on reversed-phase column (C 18), EEC Directive 79/831 Annex V.A8; type: physicochemical; conditions: C 18 reversed phase, 40° C., 0.1% aqueous formic acid and acetonitrile gradient
Method: In table 1, the log P values were determined in accordance with EEC Directive 79/831 Annex V.A8 by HPLC (High Performance Liquid Chromatography) on a reversed-phase column (C 18), using the method described below: Temperature: 40° C.; Mobile phases: 0.1% aqueous formic acid and acetonitrile; linear gradient from 10% acetonitrile to 90% acetonitrile. Calibration was carried out using unbranched alkan-2-ones (comprising 3 to 16 carbon atoms) with known log P values (determination of the log P values by the retention times using linear interpolation between two successive alkanones). lambda-max-values were determined using UV-spectra from 200 nm to 400 nm and the peak values of the chromatographic signals.

[2] = system: Pyrenophora teres; assay: In vivo preventive test on Pyrenophora teres (barley); conditions: 500 ppm of active ingredient, evaluated 7-9 days after inoculation
Method: EXAMPLE F: IN VIVO PREVENTIVE TEST ON PYRENOPHORA TERES (BARLEY) Solvent: 49 parts by weight of N,N-dimethylformamide Emulsifier: 1 part by weight of Alkylarylpolyglycolether To produce a suitable preparation of active compound, 1 part by weight of active compound is mixed with the stated amounts of solvent and emulsifier, and the concentrate is diluted with water to the desired concentration. To test for preventive activity, young plants are sprayed with the preparation of active compound at the stated rate of application. One day after this treatment, the plants are inoculated with an aqueous spore suspension of Pyrenophora teres. The plants remain for 48 hours in an incubation cabinet at 22° C. and a relative atmospheric humidity of 100%. Then the plants are placed in a greenhouse at a temperature of approximately 20° C. and a relative atmospheric humidity of approximately 80%. The test is evaluated 7-9 days after the inoculation. 0% means an efficacy which corresponds to that of the untreated control while an efficacy of 100% means that no disease is observed. Under these conditions, high (at least 90%) to total protection is observed at a dose of 500 ppm of active ingredient with the following compounds from table F: […]

[3] = system: Sphaerotheca fuliginea; assay: In vivo preventive test on Sphaerotheca fuliginea (cucumbers); conditions: 100 ppm of active ingredient, evaluated 7 days after inoculation
Method: EXAMPLE H: IN VIVO PREVENTIVE TEST ON SPHAEROTHECA FULIGINEA (CUCUMBERS) Solvent: 24.5 parts by weight of acetone • 24.5 parts by weight of N,N-dimethylacetamide Emulsifier: 1 part by weight of alkylaryl polyglycol ether To produce a suitable preparation of active compound, 1 part by weight of active compound is mixed with the stated amounts of solvent and emulsifier, and the concentrate is diluted with water to the desired concentration. To test for protect activity, young plants are sprayed with the preparation of active compound at the stated rate of application. After the spray coating has dried on, the plants are inoculated with an aqueous spore suspension of Sphaerotheca fuliginea. The plants are then placed in a greenhouse at approximately 23° C. and a relative atmospheric humidity of approximately 70%. The test is evaluated 7 days after the inoculation. 0% means an efficacy which corresponds to that of the untreated control, while an efficacy of 100% means that no disease is observed. Under these conditions, high (at least 90%) to total protection is observed at a dose of 100 ppm of active ingredient with the following compounds from table H: Under the same conditions, high protection (greater than 80%) is observed at a dose of 500 ppm of active ingredient with compound 7, whereas poor protection (less than 20%) is observed with the isosteric analogue compound CMP2 claimed in WO-2009/016218 as in table H2.

[4] = system: Uromyces appendiculatus; assay: In vivo preventive test on Uromyces appendiculatus (beans); conditions: 100 ppm of active ingredient, evaluated 10 days after inoculation
Method: (§1) EXAMPLE I: IN VIVO PREVENTIVE TEST ON UROMYCES APPENDICULATUS (BEANS) Solvent: 24.5 parts by weight of acetone • 24.5 parts by weight of N,N-dimethylacetamide Emulsifier: 1 part by weight of alkylaryl polyglycol ether To produce a suitable preparation of active compound, 1 part by weight of active compound is mixed with the stated amounts of solvent and emulsifier, and the concentrate is diluted with water to the desired concentration. To test for preventive activity, young plants are sprayed with the preparation of active compound at the stated rate of application. After the spray coating has dried on, the plants are inoculated with an aqueous spore suspension of the causal agent of bean rust (Uromyces appendiculatus) and then remain for 1 day in an incubation cabinet at approximately 20° C. and a relative atmospheric humidity of 100%. The plants are then placed in a greenhouse at approximately 21° C. and a relative atmospheric humidity of approximately 90%. The test is evaluated 10 days after the inoculation. 0% means an efficacy which corresponds to that of the untreated control, while an efficacy of 100% means that no disease is observed. Under these conditions, excellent (at least 95%) to total protection is observed at a dose of 100 ppm of active ingredient with the following compounds from table I: […]

[5] = system: Venturia inaequalis; assay: In vivo preventive test on Venturia inaequalis (apples); conditions: 100 ppm of active ingredient, evaluated 10 days after inoculation
Method: as §1, with “J:” for “I:”, “VENTURIA INAEQUALIS (APPLES)” for “UROMYCES APPENDICULATUS (BEANS)”, “conidia” for “spore”, “apple scab (Venturia inaequalis)” for “bean rust (Uromyces appendiculatus)”, “conditions,” for “conditions, excellent (at least 95%) to”

CCC(C1CCc2ccccc2C1)N(C(=O)c1c(C(F)F)nn(C)c1F)C1CC1 (stereo not shown) [Example 17]
logP [1]: 4.41 | Efficacy [2]: 100%

CCc1nn(C)c(F)c1C(=O)N(C1CC1)C(C)C1Cc2ccccc2C1 (stereo not shown) [Example 12]
logP [1]: 3.67 | Efficacy [2]: 100% | Efficacy [3]: 95% | Efficacy [4]: 100% | Efficacy [5]: 100%

CC(C1Cc2ccccc2C1)N(C(=O)c1cn(C)nc1C(F)F)C1CC1 (stereo not shown) [Example 13]
logP [1]: 3.33 | Efficacy [2]: 100% | Efficacy [3]: 95% | Efficacy [4]: 98% | Efficacy [5]: 100%

Cc1nn(C)c(F)c1C(=O)N(C1CC1)C(C)C1Cc2ccccc2C1 (stereo not shown) [Example 11]
logP [1]: 3.25 | Efficacy [2]: 100% | Efficacy [3]: 92% | Efficacy [4]: 100% | Efficacy [5]: 100%

CC(C1CCc2ccccc2C1)N(C(=O)c1c(C(F)F)nn(C)c1F)C1CC1 (stereo not shown) [Example 16]
logP [1]: 3.99 | Efficacy [2]: 100% | Efficacy [3]: 100% | Efficacy [5]: 100%

CC(C1Cc2ccccc2C1)N(C(=O)c1c(C(F)F)nn(C)c1F)C1CC1 (stereo not shown) [Example 14, N-cyclopropyl-3-(difluoromethyl)-N-[1-(indan-2-yl)ethyl]-5-fluoro-1-methyl-1H-pyrazole-4-carboxamide]
chromatographic logP ([1]; reversed-phase HPLC column (C 18)): 3.76 | Efficacy [2]: 100% | Efficacy [3]: 100% | Efficacy [5]: 100%
